Each structure is given as a SMILES string. Several values for one entry are separate records, joined by “and”; a condition that tells them apart may be missing. Equal entries are not always repeated. Toxic doses and inconclusive results are not listed.

The test system of this assay is P388 leukemia ip, CD2F1 mice, survival T/C. Briefly: NCI In Vivo Anticancer Drug Screen. Data for tumor model P388 Leukemia (intraperitoneal) in CD2F1 (CDF1) mice. As to conditions: endpoint: median survival time, higher = longer survival. The procedure, abridged: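 Mice carrying the transplanted tumor received test compound or vehicle. Survival was recorded in each group, and the value is the treated-group measurement divided by that of the vehicle-treated control group.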

Setting [1] is: dose: 50.0 mg/kg/injection, schedule: Q01DX009 (ip), vehicle: Klucel (hydroxypropylcellulose) (HPC).
Setting [2] is: dose: 25.0 mg/kg/injection, schedule: Q01DX009 (ip), vehicle: saline with Tween-80.
[3] abbreviates: dose: 50.0 mg/kg/injection, schedule: Q01DX009 (ip), vehicle: saline with Tween-80.
Setting [4] is: dose: 100.0 mg/kg/injection, schedule: Q01DX009 (ip), vehicle: saline with Tween-80.
Setting [5] is: dose: 50.0 mg/kg/injection, schedule: Q01DX005 (ip), vehicle: Klucel (hydroxypropylcellulose) (HPC).
[6] abbreviates: dose: 100.0 mg/kg/injection, schedule: Q01DX005 (ip), vehicle: Klucel (hydroxypropylcellulose) (HPC).
Where [7] appears, read: dose: 200.0 mg/kg/injection, schedule: Q01DX005 (ip), vehicle: Klucel (hydroxypropylcellulose) (HPC).
[8] abbreviates: dose: 100.0 mg/kg/injection, schedule: Q04DX002 (ip), vehicle: saline.
Setting [9] is: dose: 200.0 mg/kg/injection, schedule: Q04DX002 (ip), vehicle: saline.
[10] abbreviates: dose: 400.0 mg/kg/injection, schedule: Q04DX002 (ip), vehicle: saline.

On to `CCOC(=O)c1c(Cl)c(Cl)c(C(=O)OCC)c(Cl)c1Cl`, for which the T/C was 100 % of control (dose: 100.0 mg/kg/injection, schedule: Q04DX003 (ip), vehicle: saline sonified); 100 % of control (dose: 200.0 mg/kg/injection, schedule: Q04DX003 (ip), vehicle: saline sonified); 100 % of control (dose: 400.0 mg/kg/injection, schedule: Q04DX003 (ip), vehicle: saline sonified).
In the case of `CCCOC(=O)C1(CCl)CCC(=O)O1` (centres undefined), the T/C by setting is: under setting [1], 101 % of control; (dose: 100.0 mg/kg/injection, schedule: Q01DX009 (ip), vehicle: Klucel (hydroxypropylcellulose) (HPC)) 103 % of control; (dose: 200.0 mg/kg/injection, schedule: Q01DX009 (ip), vehicle: Klucel (hydroxypropylcellulose) (HPC)) 103 % of control.
Turning to `c1ccc2c(SCCCCCCCCCSc3c4ccccc4nc4ccccc34)c3ccccc3nc2c1`, the T/C runs as follows: (dose: 60.0 mg/kg/injection, schedule: Q01DX005 (ip), vehicle: Klucel (hydroxypropylcellulose) (HPC)) 107 % of control; (dose: 120.0 mg/kg/injection, schedule: Q01DX005 (ip), vehicle: Klucel (hydroxypropylcellulose) (HPC)) 104 % of control; (dose: 240.0 mg/kg/injection, schedule: Q01DX005 (ip), vehicle: Klucel (hydroxypropylcellulose) (HPC)) 90 % of control.
With `CN(C=O)COC(=O)c1ccccc1`, the T/C (dose: 31.25 mg/kg/injection, schedule: Q01DX005 (ip), vehicle: distilled water + Tween-80) was 104 % of control; the T/C (dose: 62.5 mg/kg/injection, schedule: Q01DX005 (ip), vehicle: distilled water + Tween-80) was 96 % of control; the T/C (dose: 125.0 mg/kg/injection, schedule: Q01DX005 (ip), vehicle: distilled water + Tween-80) is 93 % of control; the T/C (dose: 250.0 mg/kg/injection, schedule: Q01DX005 (ip), vehicle: distilled water + Tween-80) was 104 % of control.
Consider `CC(C)c1ccc(O)c(O)c1`, for which the T/C runs as follows: under setting [2], 113 % of control; under setting [3], 113 % of control; under setting [4], 111 % of control.
Take `CCN(CC)CCC(=O)c1ccccc1`: the T/C is, setting by setting: (dose: 12.5 mg/kg/injection, schedule: Q01DX009 (ip), vehicle: saline with Tween-80) 102 % of control and 89 % of control; under setting [2], 108 % of control; (dose: 25.0 mg/kg/injection, schedule: Q01DX009 (ip), vehicle: saline) 97 % of control; under setting [3], 109 % of control and 91 % of control; (dose: 50.0 mg/kg/injection, schedule: Q01DX009 (ip), vehicle: saline) 96 % of control; under setting [4], 123 % of control.
For the molecule `O=C1OC(=O)C2CC=CCC12` (centres undefined), the T/C runs as follows: under setting [3], 95 % of control; under setting [4], 93 % of control; (dose: 200.0 mg/kg/injection, schedule: Q01DX009 (ip), vehicle: saline with Tween-80) 100 % of control.
Take `O=CC(C(=O)c1ccccc1[N+](=O)[O-])c1ccccc1` (centres undefined): the T/C is 89 % of control under setting [5], 104 % of control under setting [6] and 98 % of control under setting [7].
In the case of `O=P(c1ccccc1)(c1ccccc1)c1ccccc1` (tested in a mixture with another compound), the T/C (dose: 25.0 mg/kg/injection, schedule: Q01DX009 (ip), vehicle: other) was 89 % of control.
For `O=P(N1CCCCCC1)(N1CC1)N1CC1`, the T/C by setting is: (dose: 0.47 mg/kg/injection, schedule: Q01DX009 (ip), vehicle: saline) 102 % of control; (dose: 0.94 mg/kg/injection, schedule: Q01DX009 (ip), vehicle: saline) 108 % of control; (dose: 0.94 mg/kg/injection, schedule: Q04DX003 (ip), vehicle: saline) 117 % of control; (dose: 1.87 mg/kg/injection, schedule: Q01DX009 (ip), vehicle: saline) 118 % of control; (dose: 1.88 mg/kg/injection, schedule: Q01DX009 (ip), vehicle: saline) 118 % of control; (dose: 3.75 mg/kg/injection, schedule: Q04DX003 (ip), vehicle: saline) 161 % of control. The T/C is, setting by setting: (dose: 7.5 mg/kg/injection, schedule: Q04DX003 (ip), vehicle: saline) 227 % of control; (dose: 15.0 mg/kg/injection, schedule: Q04DX003 (ip), vehicle: saline) 165 % of control; (dose: 22.0 mg/kg/injection, schedule: Q04DX003 (ip), vehicle: saline) 190 % of control; (dose: 30.0 mg/kg/injection, schedule: Q04DX003 (ip), vehicle: saline) 200 % of control; (dose: 33.0 mg/kg/injection, schedule: Q04DX003 (ip), vehicle: saline) 259 % of control.
Consider `Cc1cc(C=C2C(=O)c3ccccc3C2=O)cc(C(C)(C)C)c1O`, for which the T/C by setting is: under setting [8], 100 % of control; under setting [9], 100 % of control; under setting [10], 97 % of control.
On to `C[C@]12CC[C@@H]3c4ccc(OCCCO)c([N+](=O)[O-])c4CC[C@H]3[C@@H]1CCC2=O`, for which the T/C reads like this: (dose: 25.0 mg/kg/injection, schedule: Q01DX005 (ip), vehicle: saline with Tween-80) 100 % of control; (dose: 50.0 mg/kg/injection, schedule: Q01DX005 (ip), vehicle: saline with Tween-80) 106 % of control; (dose: 100.0 mg/kg/injection, schedule: Q01DX005 (ip), vehicle: saline with Tween-80) 91 % of control; (dose: 200.0 mg/kg/injection, schedule: Q01DX005 (ip), vehicle: saline with Tween-80) 88 % of control.
In the case of `S=c1[nH][nH]c(=S)s1`, the T/C was 95 % of control (dose: 25.0 mg/kg/injection, schedule: Q01DX009 (ip), vehicle: Klucel (hydroxypropylcellulose) (HPC)) and 95 % of control under setting [1].
In the case of `CCOc1nc(N)c(C(=O)c2sc(OCC)nc2N)s1`, the T/C (dose: 100.0 mg/kg/injection, schedule: Q01DX001 (ip), vehicle: saline with Tween-80) was 107 % of control; the T/C (dose: 200.0 mg/kg/injection, schedule: Q01DX001 (ip), vehicle: saline with Tween-80) is 99 % of control; the T/C (dose: 400.0 mg/kg/injection, schedule: Q01DX001 (ip), vehicle: saline with Tween-80) was 92 % of control.
In the case of `O=S(=O)(OC(=C(c1ccccc1)c1ccccc1)c1ccccc1)C(F)(F)F`, the T/C was 99 % of control (dose: 50.0 mg/kg/injection, schedule: Q01DX009 (ip), vehicle: olive oil, sesame oil, peanut oil); 107 % of control (dose: 100.0 mg/kg/injection, schedule: Q01DX009 (ip), vehicle: olive oil, sesame oil, peanut oil); 112 % of control (dose: 200.0 mg/kg/injection, schedule: Q01DX009 (ip), vehicle: olive oil, sesame oil, peanut oil).
`CCc1ccc(C2(C)C(=O)c3ccccc3C2=O)cc1`: the T/C was 101 % of control under setting [8], 100 % of control under setting [9] and 104 % of control under setting [10].
`CSc1cccc([N+](=O)[O-])c1`: the T/C is, setting by setting: (dose: 100.0 mg/kg/injection, schedule: Q01DX009 (ip), vehicle: saline) 95 % of control; (dose: 200.0 mg/kg/injection, schedule: Q01DX009 (ip), vehicle: saline) 87 % of control.
Regarding `CC(C)=CCc1cc2c(cc1O)OC[C@H]1c3cc4c(cc3O[C@@H]21)OCO4`, the T/C reads like this: (dose: 100.0 mg/kg/injection, schedule: Q01DX001 (ip), vehicle: Klucel (hydroxypropylcellulose) (HPC)) 91 % of control; (dose: 200.0 mg/kg/injection, schedule: Q01DX001 (ip), vehicle: Klucel (hydroxypropylcellulose) (HPC)) 96 % of control; (dose: 400.0 mg/kg/injection, schedule: Q01DX001 (ip), vehicle: Klucel (hydroxypropylcellulose) (HPC)) 91 % of control.
Regarding `CNC(=O)c1ccccc1CC1(O)c2ccccc2Oc2ccccc21`, the T/C by setting is: under setting [5], 100 % of control; under setting [6], 99 % of control; under setting [7], 96 % of control.
Regarding `CCOP(=O)(Nc1c(Cl)cc2c(c1Cl)Cc1cc([N+](=O)[O-])ccc1-2)OCC`, the T/C runs as follows: under setting [5], 92 % of control; under setting [6], 88 % of control; under setting [7], 88 % of control.
